Reference: publication PMC6588349 (eLife, 2019)
Where two headings read alike, the source gives them in different places.

Assays:
[1] = target: T1, full-length mGluR2 (SNAP-mGluR2) (Rattus norvegicus, UniProt P31421); assay: GIRK activation assay, whole cell patch clamp, HEK 293T cells expressing full-length mGluR2; type: cell-based; conditions: for effect on basal GIRK current in the absence of glutamate: NAM alone, HEK 293T cells expressing GIRK and full-length mGluR2
T1 construct: HEK 293T cells expressing full-length mGluR2; expressed in transfected cells; host or cells: HEK 293T
T1 sequence (P31421 19-872): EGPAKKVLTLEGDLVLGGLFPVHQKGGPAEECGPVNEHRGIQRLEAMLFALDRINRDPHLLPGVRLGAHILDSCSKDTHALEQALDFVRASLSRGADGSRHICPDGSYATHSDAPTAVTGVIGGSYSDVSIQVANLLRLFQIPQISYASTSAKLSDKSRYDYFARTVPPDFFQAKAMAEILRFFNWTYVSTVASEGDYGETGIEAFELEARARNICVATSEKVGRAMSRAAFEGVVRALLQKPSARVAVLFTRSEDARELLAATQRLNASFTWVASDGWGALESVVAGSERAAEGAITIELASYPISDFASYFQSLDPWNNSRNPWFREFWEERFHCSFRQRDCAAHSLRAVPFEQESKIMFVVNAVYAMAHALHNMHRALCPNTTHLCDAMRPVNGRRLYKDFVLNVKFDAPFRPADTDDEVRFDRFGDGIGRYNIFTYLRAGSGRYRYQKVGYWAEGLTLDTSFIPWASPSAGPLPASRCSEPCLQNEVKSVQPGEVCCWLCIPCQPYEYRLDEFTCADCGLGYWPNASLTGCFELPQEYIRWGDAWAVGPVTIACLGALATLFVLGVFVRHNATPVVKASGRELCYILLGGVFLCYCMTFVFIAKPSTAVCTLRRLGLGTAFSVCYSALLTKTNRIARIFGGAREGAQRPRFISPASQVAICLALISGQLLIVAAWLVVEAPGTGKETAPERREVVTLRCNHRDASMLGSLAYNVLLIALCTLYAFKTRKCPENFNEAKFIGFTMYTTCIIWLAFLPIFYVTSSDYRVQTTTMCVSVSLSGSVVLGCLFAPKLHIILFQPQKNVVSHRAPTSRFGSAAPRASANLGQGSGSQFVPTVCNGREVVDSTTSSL
Description: Cells were cultured in DMEM with 5% FBS on poly-L-lysine-coated glass coverslips. DNA plasmids were transfected into cells using Lipofectamine 3000 (Thermo Fisher). […] For single-molecule pulldown (SiMPull) experiments, cells were transfected with 0.7 μg DNA of HA and SNAP-tagged receptor constructs, unless otherwise noted.
(§1) Whole-cell patch clamp recordings from single isolated cells were performed 24–36 hr after transfection in a high-potassium extracellular solution containing (in mM): 120 KCl, 29 NaCl, 1 MgCl2, 2 CaCl2 and 10 HEPES, pH 7.4. Cells were voltage clamped to −60 mV using an Axopatch 200B amplifier (Axon Instruments) and membrane currents were recorded. Glass pipettes of resistance between 3 and 8 MΩ were filled with intracellular solution containing (in mM): 140 KCl, 10 HEPES, 3 Na2ATP, 0.2 Na2GTP, 5 EGTA and 3 MgCl2, pH 7.4. Data were acquired with a 2 kHz acquisition rate and filtered with the amplifier 4-pole Bessel filter at 1 kHz. Drugs were prepared in extracellular solution and applied using a gravity-driven perfusion system. Data were analyzed with Clampfit (Molecular Devices) and Prism (GraphPad). Data for all conditions came from at least two separate transfections.

[2] = target: T2, isolated mGluR2 TMD (SNAP-mGluR2-TMD) (Rattus norvegicus, UniProt P31421); assay: GIRK activation assay, whole cell patch clamp, isolated mGluR2 TMD; type: cell-based; conditions: normalized to saturating LY48
T2 construct: mGluR2-TMD (rat) starts at Q558; expressed in transfected cells; host or cells: HEK 293T
T2 sequence (P31421 558-872 limits assumed): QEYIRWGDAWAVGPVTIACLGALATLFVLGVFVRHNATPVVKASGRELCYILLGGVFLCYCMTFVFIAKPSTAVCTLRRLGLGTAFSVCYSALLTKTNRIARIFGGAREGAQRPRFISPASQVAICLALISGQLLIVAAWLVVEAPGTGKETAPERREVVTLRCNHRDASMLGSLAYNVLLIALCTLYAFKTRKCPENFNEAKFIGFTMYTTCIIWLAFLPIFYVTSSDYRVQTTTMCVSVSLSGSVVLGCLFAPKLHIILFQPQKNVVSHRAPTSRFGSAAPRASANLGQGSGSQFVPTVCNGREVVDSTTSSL
Description: Cells were cultured in DMEM with 5% FBS on poly-L-lysine-coated glass coverslips. DNA plasmids were transfected into cells using Lipofectamine 3000 (Thermo Fisher). […] For single-molecule pulldown (SiMPull) experiments, cells were transfected with 0.7 μg DNA of HA and SNAP-tagged receptor constructs, unless otherwise noted. For FRET experiments, cells were transfected with either SNAP-tagged constructs at 0.5–0.7 μg of DNA/well or SNAP and CLIP-tagged constructs at a ratio of 1:2 with 0.3 μg of SNAP DNA/well.
as §1

mGluR2-N735D = target: T3, mGluR2-N735D (Rattus norvegicus, UniProt P31421, N735D); assay: GIRK activation assay, whole cell patch clamp, mGluR2-N735D; type: cell-based; conditions: relative to wild-type / saturating glutamate
T3 construct: expressed in transfected cells; host or cells: HEK 293T
T3 sequence (P31421 19-872 N735D): as the sequence (P31421 19-872) above, with N717D counted along it
Description: as §1

[3] = Gramicidin-based fluorescence quench assay for changes of lipid bilayer properties (LUVs); type: physicochemical; conditions: 1 to 10 µM
From the text: To further probe this, we used a fluorescence quench assay for drug-induced changes of lipid bilayer properties ([Ingólfsson and Andersen, 2010]) (Figure 6—figure supplement 3A; see Materials and methods), in which changes in gramicidin channel function is used as a reporter of membrane modification. […] The persistent BINA response is thus consistent with a model where BINA readily partitions into the plasma membrane lipid bilayer (and possibly other lipidic compartments).
The gramicidin-based fluorescence assay has been described previously ([Ingólfsson and Andersen, 2010]). In brief, large unilamellar vesicles (LUVs), loaded with intravesicular ANTS were prepared from DC22:1PC and gramicidin (weight ratio 1000:1, corresponding to a ~ 2000:1 molar ratio) using freeze-drying, extrusion and size-exclusion chromatography; the final lipid concentration was 4–5 mM; the suspension was stored in the dark at 12.5°C for a maximum of 7 days. […] Before use, the LUV-ANTS stock was diluted to 200–250 μM lipid with NaNO3 buffer (140 mM NaNO3, 10 mM HEPES, pH 7).
The NAMs and PAMs (dissolved in DMSO) or DMSO (as control) were added to a LUV-ANTS sample and equilibrated at 25°C in the dark for 10 min. before the mixture was loaded into a stopped-flow spectrofluorometer (Applied Photophysics SX.20, Leatherhead, UK) and mixed with either NaNO3 buffer or TlNO3 buffer; Tl^+ (thallous ion) is a gramicidin channel-permeant quencher of the ANTS fluorescence. Samples were excited at 352 nm and the fluorescence signal above 455 nm was recorded in the absence (four successive trials) or presence (nine successive trials) of the quencher. All the NAM and PAM derivatives fluoresce to varying degrees and addition of these drugs to LUVs in control experiments without gA or Tl^+ increased the fluorescence signal, and each signal was normalized to account for the compound's fluorescence. […] The quench rate (Rate), the rate of Tl^+ influx, was determined at 2 ms: Rate=β/τ0⋅(t/τ0)^β−1|2ms […]

Row | SMILES | effect on the glutamate-sensitivity of mGluR2 (GIRK) ([1]; 50 nM LY48) | highest concentration that did not produce a GIRK response on its own ([1]; full-length mGluR2) [nM] | reversibility of GIRK currents after washout ([1]; full-length mGluR2, up to 10 min of washout) | EC50 ([1]; mGluR2-WT, read-out: GIRK activation EC50 (approximate)) [nM] | maximal PAM-induced GIRK activation relative to glutamate ([1]; mGluR2-WT, relative to saturating glutamate) | GIRK current time 10% to 90% ([1]; saturating: 10 µM LY48, 1 mM Glutamate) [s] | EC50 ([1]; wild-type SNAP-mGluR2, HEK 293T, PAM alone, normalized to saturating glutamate, mean ± s.e.m., read-out: GIRK activation EC50) [nM] | EC50 [2] [nM] | GIRK activation of mGluR2-N735D (mGluR2-N735D) | effect on basal GIRK current in the absence of glutamate [1] | effect of co-application on LY48-induced GIRK activation ([1]; co-applied with LY48, saturating concentration for LY341495) | changes in gramicidin channel function (membrane properties) [3]
1 | COc1ccccc1Oc1ccc(N(Cc2cccnc2)S(=O)(=O)CC(F)(F)F)cc1 [LY48] | no effect on the glutamate-sensitivity of mGluR2 | 50 | fully-reversible currents | ~300 | ~ 70% | 14.3 ± 3.5 | 230 ± 40 | 140 ± 10 | drastically reduced activation | – | – | –
2 | N#Cc1cc(C2=Nc3ccc(Br)cc3NC(=O)C2)ccn1 [MNI 137] | – | – | – | – | – | – | – | – | – | no effect on basal current | blocked | do not alter membrane properties
3 | Clc1cccc(Cl)c1/C(=C/n1cncn1)OC1CCCCCC1 [Ro 64] | – | – | – | – | – | – | – | – | – | small but clear outward current | – | do not alter membrane properties
